Data reported in patent publication US20250136722A1, “CYTOTOXICITY TARGETING CHIMERAS” (GLAXOSMITHKLINE INTELLECTUAL PROPERTY DEVELOPMENT LIMITED, priority 2021, published 2025).
“And” between values parts separate entries of the source, which are not always exact repeats. Equal values may be shown once.

Columns and labels:
[1] = target: Anti-cotinine antibody (SEQ ID NO: 11 / SEQ ID NO: 12, rabbit variable region with human IgG1 Fc domain); assay: Binding of anti-cotinine antibody to ARM compounds by SPR, Biacore T200, 37° C. (Example 202); settings: pH 7.4, rabbit variable region/human IgG1 Fc antibody captured on protein A
Summary of the method: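 Run at 37° C. in 10 mM HEPES pH 7.4, 150 mM NaCl, 0.005% P20, 1% DMSO. Compound titrated from 200 nM (five 3-fold steps) over protein A-captured antibody, with 200/2000 s association/dissociation. 1:1 kinetic fit gave kon, koff, Kd and residence time (1/koff); pKd averaged where runs repeated.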

[2] = target: T1, CHOK1 cells engineered to overexpress human CCR2 (Homo sapiens, UniProt P41597); assay: Antibody dependent cellular cytotoxicity (ADCC) reporter assay (Example 199); format: cell-based; settings: with anti-cotinine antibody SEQ ID NO: 11/12; CHOK1-human CCR2 target cells, Jurkat FcγRIIIa NFAT-luciferase reporter cells; 12-18 hours; read-out: ADCC Reporter Assay pEC50 (converted)
T1 construct: expressed in transfected cells; host or cells: CHOK1 cells
Summary of the method: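 Potency is reported as pEC50 from a nonlinear fit, averaged over runs, using luciferase signal divided by that of compound-free wells. The readout comes from NFAT-luciferase Jurkat cells expressing FcγRIIIa, mixed for 12–18 h with human CCR2-overexpressing CHOK1 cells, 1 pM–10 μM ARM compound and 0.01–200 μg/mL Fc-enhanced anti-cotinine IgG1.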

[3] = target: human alpha1 nicotinic acetylcholine (nACh) receptor (Homo sapiens, UniProt P02708+Q07001); assay: Nicotinic acetylcholine receptor antagonism assay, IONFlux automated patch clamp (Example 203); format: cell-based; settings: for Emax at 100 µM: maximum percentage antagonism at maximum concentration tested 100 μM; for Emax at 100 µM / Emax at 10 µM: read-out: Maximum Response (%); for IC50: nAChR antagonism, ACh stimulated, patch clamp; for Emax at 10 µM: maximum percentage antagonism at maximum concentration tested 10 μM
Chain of human alpha1 nicotinic acetylcholine (nACh) receptor (P02708 21-457): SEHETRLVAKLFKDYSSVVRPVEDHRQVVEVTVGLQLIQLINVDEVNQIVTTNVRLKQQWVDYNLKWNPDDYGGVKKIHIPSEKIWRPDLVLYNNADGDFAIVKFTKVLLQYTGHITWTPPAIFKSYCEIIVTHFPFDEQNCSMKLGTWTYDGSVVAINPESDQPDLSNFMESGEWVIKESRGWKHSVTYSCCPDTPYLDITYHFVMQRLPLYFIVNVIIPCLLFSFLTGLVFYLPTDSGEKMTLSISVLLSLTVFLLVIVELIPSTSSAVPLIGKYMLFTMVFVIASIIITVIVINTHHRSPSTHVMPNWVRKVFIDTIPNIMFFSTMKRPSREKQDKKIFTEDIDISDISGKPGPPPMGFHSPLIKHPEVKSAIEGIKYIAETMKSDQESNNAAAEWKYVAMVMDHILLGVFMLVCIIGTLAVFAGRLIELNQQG
Chain of human alpha1 nicotinic acetylcholine (nACh) receptor (P11230 24-501 partner): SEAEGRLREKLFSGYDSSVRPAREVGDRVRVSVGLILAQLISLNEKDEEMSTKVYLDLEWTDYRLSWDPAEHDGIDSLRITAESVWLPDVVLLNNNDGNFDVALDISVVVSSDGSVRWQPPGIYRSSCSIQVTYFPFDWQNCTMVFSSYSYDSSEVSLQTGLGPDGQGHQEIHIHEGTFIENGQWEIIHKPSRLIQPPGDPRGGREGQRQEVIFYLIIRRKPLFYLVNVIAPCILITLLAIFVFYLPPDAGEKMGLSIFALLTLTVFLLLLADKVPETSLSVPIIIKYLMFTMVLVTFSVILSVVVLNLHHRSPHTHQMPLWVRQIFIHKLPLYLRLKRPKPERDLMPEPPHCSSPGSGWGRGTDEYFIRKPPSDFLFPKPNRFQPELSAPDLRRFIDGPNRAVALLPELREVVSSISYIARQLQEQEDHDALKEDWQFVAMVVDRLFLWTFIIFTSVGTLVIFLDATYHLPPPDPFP
Chain of human alpha1 nicotinic acetylcholine (nACh) receptor (Q07001 22-517): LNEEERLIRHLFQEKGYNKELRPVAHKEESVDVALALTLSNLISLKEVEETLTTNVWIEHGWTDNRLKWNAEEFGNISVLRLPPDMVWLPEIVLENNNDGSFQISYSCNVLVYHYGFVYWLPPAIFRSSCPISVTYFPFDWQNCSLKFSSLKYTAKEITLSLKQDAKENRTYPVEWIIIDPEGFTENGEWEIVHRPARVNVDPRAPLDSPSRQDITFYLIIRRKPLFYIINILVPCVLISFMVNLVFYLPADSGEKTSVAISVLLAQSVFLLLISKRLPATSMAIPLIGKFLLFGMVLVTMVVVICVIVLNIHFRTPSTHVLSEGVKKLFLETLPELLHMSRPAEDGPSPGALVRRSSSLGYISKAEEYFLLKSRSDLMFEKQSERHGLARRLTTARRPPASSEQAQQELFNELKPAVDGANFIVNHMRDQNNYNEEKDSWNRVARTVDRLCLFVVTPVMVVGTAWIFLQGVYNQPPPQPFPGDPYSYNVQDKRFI
Method: Cells expressing human alpha1 nicotinic acetylcholine (nACh) receptor (nAChR) were washed and dissociated using Trypsin containing buffer. Cells were then washed and seeded at a density of 3-5 million cells/mL and allowed to grow for 3 days. Then, 60-80 μL of cells were added to plates and incubated with dose response of an ARM compound of Formula (I) with a top concentration of either 10 μM or 100 μM. The receptor was then stimulated via addition of acetylcholine (ACh) and activation of the receptor was monitored via the IONFlux automated patch clamp system. IonFlux Data Analyzer software was utilized to perform leak subtraction and measure (min) peak current amplitude.
Data processing: (1) Current values recorded for vehicle only applications in individual traps/patterns were subtracted from corresponding current amplitude values for control, test article and control+test article. (2) Control response was calculated as % of the average response of the 3rd out of total 3 ACh (10 mM) applications alone. In rare situations, if the 3rd ACh response was obscured due to technical artifacts, the 2nd and/or 1 st ACh (10 mM) application was considered as control. The peak current amplitude generated in the presence of each test article concentration was then used to calculate the % inhibition as compared to control response (10 mM ACh alone). These estimates were further corrected for vehicle response and run down corrected by normalizing with time matched control responses (10 mM ACh alone). The corrected percentages were then fit with a non-linear function in GraphPad Prism 6 (or later versions) to determine the […].
Exclusion criteria: (i) any n's with poor recording quality, (ii) control current amplitude <500 pA or (iii) significant outliers, as determined by the Grubbs' test.
ARMs compounds of Formula (I) of the invention were tested for antagonism of the nAChR in the above assay in […] experimental runs and the results are shown in Table 7 below. Antagonistic activity of the compounds of Formula (I) of the invention is reported as an IC50 value (half maximal inhibitory concentration) and the maximum percentage antagonism observed at the highest concentration of compound of Formula (I) tested, as indicated in Table 7. For compounds tested in more than one experimental run, the IC50 value is reported as an average.

SMILES	pKd of Antibody for ARM Compound of Formula (I) [1]	IC50 [3] [nM]	Emax at 10 µM [3] [%]	EC50 [2]	Emax at 100 µM [3] [%]
CC(C)N(C)[C@@H]1CC[C@H](N2CC[C@H](Nc3ncnc4ccc(C(F)(F)F)cc34)C2=O)[C@H](NC(=O)[C@H]2CC[C@@H](NC(=O)CCCO[C@H]3CC[C@H](OCCNC(=O)[C@H]4CC(=O)N(C)[C@@H]4c4cccnc4)CC3)CC2)C1 [Example 5]	9.19	> 100000		0.316 nM and 0.386 nM	40.5
CC(C)N(C)[C@@H]1CC[C@H](N2CC[C@H](Nc3ncnc4ccc(C(F)(F)F)cc34)C2=O)[C@H](NC(=O)CCOCCNC(=O)CCCO[C@H]2CC[C@H](OCCNC(=O)[C@H]3CC(=O)N(C)[C@@H]3c3cccnc3)CC2)C1 [Example 7]	9.2515	13700		0.182 nM	95
CC(C)N(C)[C@@H]1CC[C@H](N2CC[C@H](Nc3ncnc4ccc(C(F)(F)F)cc34)C2=O)[C@H](NC(=O)[C@H]2CC[C@@H](NC(=O)CCOCCOCCNC(=O)CCNC(=O)[C@H]3CC(=O)N(C)[C@@H]3c3cccnc3)CC2)C1 [Example 16, (2S,3S)-N-(3-((2-(2-(3-(((1S,4s)-4-(((1R,2S,5R)-5-(Isopropyl(methyl)amino)-2-((S)-2-oxo-3-((6-(trifluoromethyl)quinazolin-4-yl)amino)pyrrolidin-1-yl)cyclohexyl)carbamoyl)cyclohexyl)amino)-3-oxopropoxy)ethoxy)ethyl)amino)-3-oxopropyl)-1-methyl-5-oxo-2-(pyridin-3-yl)pyrrolidine-3-carboxamide]	9.287	> 100000		0.925 nM and 0.119 nM	47.8
CC(C)N(C)[C@@H]1CC[C@H](N2CC[C@H](Nc3ncnc4ccc(C(F)(F)F)cc34)C2=O)[C@H](NC(=O)[C@H]2CC[C@@H](NC(=O)CCCC(=O)NCCCOCCCNC(=O)[C@H]3CC(=O)N(C)[C@@H]3c3cccnc3)CC2)C1 [Example 18, N^1-((1S,4s)-4-(((1R,2S,5R)-5-(Isopropyl(methyl)amino)-2-((S)-2-oxo-3-((6-(trifluoromethyl)quinazolin-4-yl)amino)pyrrolidin-1-yl)cyclohexyl)carbamoyl)cyclohexyl)-N^5-(3-(3-((2S,3S)-1-methyl-5-oxo-2-(pyridin-3-yl)pyrrolidine-3-carboxamido)propoxy)propyl)glutaramide]	9.0895	> 100000		0.675 nM and 0.132 nM	44.9
CC(C)N(C)[C@@H]1CC[C@H](N2CC[C@H](Nc3ncnc4ccc(C(F)(F)F)cc34)C2=O)[C@H](NC(=O)[C@H]2CC[C@H](NC(=O)CCCC(=O)NCCCOCCCNC(=O)[C@H]3CC(=O)N(C)[C@@H]3c3cccnc3)CC2)C1 [Example 19]	9.19	> 100000		4.9 nM	34.2

Now from value to molecule, other results behind:

pKd of Antibody for ARM Compound of Formula (I) [1]	IC50 [3] [nM]	Emax at 10 µM [3] [%]	SMILES	EC50 [2]	Emax at 100 µM [3] [%]
9.4635	> 10000	18.2	CC(C)N(C)[C@@H]1CC[C@H](N2CC[C@H](Nc3ncnc4ccc(C(F)(F)F)cc34)C2=O)[C@H](NC(=O)[C@H]2CC[C@@H](CC(=O)CCCOC[C@H]3CC[C@H](COCCNC(=O)[C@H]4CC(=O)N(C)[C@@H]4c4cccnc4)CC3)CC2)C1 [Example 60]		
9.146	> 10000	23	CC(C)N(C)[C@@H]1CC[C@H](N2CC[C@H](Nc3ncnc4ccc(C(F)(F)F)cc34)C2=O)[C@H](NC(=O)[C@H]2CC[C@@H](NC(=O)CCCOCCCCOCCNC(=O)[C@H]3CC(=O)N(C)[C@@H]3c3cccnc3)CC2)C1 [Example 122]		
9.249			CC(C)N(C)[C@@H]1CC[C@H](N2CC[C@H](Nc3ncnc4ccc(C(F)(F)F)cc34)C2=O)[C@H](NC(=O)CCCC(=O)N[C@H]2CC[C@H](CNC(=O)CCOCCNC(=O)[C@H]3CC(=O)N(C)[C@@H]3c3cccnc3)CC2)C1 [compound 180]	0.456 nM	
